In patent publication US12421205B2, “GLP-1 receptor agonist” (HYUNDAI PHARM CO., LTD., priority 2019, dated 2025):

Experiments:
human GLP-1 receptor = molecular target: T1, human GLP-1 receptor (Homo sapiens, UniProt P43220); assay: cAMP activity test (cAMP dynamic HTRF kit) in CHO-K1/GLP-1 receptor-expressing cells; type: cell-based; conditions: cAMP activity, CHO-K1/GLP-1 receptor-expressing cells; read-out: EC50
T1 construct: host or cells: CHO-K1
Summary of the method: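 Cells in HBSS with 0.1% BSA, 0.5 mM IBMX and 5 mM HEPES, then lysed; cAMP-d2 and anti-cAMP cryptate added for 3 h. HTRF read-out, where FRET signal is inversely proportional to intracellular cAMP.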

hERG = molecular target: T2, hERG (Homo sapiens, UniProt Q12809); assay: hERG inhibition test (Predictor hERG Fluorescence Polarization assay kit); type: binding; conditions: probe kit Tracer (fluorescent hERG ligand), hERG % inhibition at 10 uM, relative to E-4031 and solvent control
T2 construct: purchased Invitrogen PV5365
Summary of the method: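 Competitive fluorescence-polarization binding of fluorescent tracer to hERG membrane preparation, 2.5 h at room temperature, mP read at 531/579 nm. % inhibition at 10 uM test compound, scaled between solvent control (0%) and E-4031 (100%).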

T2 sequence (Q12809 whole entry): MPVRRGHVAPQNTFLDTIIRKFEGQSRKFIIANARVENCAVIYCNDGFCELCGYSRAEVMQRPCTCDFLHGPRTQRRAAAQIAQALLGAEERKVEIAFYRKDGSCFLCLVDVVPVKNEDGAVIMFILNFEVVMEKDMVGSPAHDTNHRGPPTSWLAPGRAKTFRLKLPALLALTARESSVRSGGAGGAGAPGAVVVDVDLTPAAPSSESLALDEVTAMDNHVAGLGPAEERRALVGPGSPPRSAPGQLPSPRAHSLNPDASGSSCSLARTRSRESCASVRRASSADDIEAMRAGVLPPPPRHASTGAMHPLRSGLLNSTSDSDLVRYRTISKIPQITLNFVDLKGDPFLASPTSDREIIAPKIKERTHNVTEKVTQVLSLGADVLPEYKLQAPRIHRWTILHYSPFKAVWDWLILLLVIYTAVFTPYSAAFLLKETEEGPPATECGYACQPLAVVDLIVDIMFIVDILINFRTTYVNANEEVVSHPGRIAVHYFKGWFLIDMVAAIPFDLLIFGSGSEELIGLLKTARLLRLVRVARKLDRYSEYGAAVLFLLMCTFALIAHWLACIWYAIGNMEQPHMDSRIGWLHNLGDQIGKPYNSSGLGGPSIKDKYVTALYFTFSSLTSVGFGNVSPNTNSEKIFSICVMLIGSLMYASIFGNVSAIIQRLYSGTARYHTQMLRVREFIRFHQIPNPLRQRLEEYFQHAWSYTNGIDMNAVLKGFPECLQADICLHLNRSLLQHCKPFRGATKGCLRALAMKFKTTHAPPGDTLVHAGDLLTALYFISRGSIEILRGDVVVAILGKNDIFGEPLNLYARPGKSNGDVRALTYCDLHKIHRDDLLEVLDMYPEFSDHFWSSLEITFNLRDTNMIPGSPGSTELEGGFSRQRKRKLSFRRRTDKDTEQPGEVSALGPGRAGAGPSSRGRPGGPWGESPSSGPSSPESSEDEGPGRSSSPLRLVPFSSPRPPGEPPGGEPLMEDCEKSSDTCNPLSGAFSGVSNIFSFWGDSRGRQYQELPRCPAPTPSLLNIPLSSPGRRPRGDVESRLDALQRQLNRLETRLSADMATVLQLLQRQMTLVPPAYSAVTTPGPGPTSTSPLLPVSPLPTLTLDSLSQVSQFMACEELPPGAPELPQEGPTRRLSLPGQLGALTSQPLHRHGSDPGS
T1 sequence (P43220 24-463): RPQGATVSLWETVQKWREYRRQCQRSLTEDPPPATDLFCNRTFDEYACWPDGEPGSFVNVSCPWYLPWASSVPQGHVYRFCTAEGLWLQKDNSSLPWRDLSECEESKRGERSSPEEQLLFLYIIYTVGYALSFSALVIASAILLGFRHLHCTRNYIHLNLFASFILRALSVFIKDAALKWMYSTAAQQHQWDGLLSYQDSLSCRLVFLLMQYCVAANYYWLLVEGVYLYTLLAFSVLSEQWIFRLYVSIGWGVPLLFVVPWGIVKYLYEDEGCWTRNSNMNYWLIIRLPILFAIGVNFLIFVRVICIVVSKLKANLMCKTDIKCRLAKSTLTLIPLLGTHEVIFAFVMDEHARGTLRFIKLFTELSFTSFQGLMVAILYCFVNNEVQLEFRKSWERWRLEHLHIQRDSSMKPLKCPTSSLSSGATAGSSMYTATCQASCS

Row | Compound | EC50 (human GLP-1 receptor) | inhibition at 2.5 h, 10 µM (hERG)
1 | O=C(O)c1ccc2nc(Cc3ccc(-c4cccc(OCc5ccc(Cl)cc5F)n4)c(F)c3)n(C[C@@H]3CCCO3)c2c1 [Example 60, (S)-2-(4-(6-((4-chloro-2-fluorobenzyl)oxy)pyridin-2-yl)-3-fluorobenzyl)-1-((tetrahydrofuran-2-yl)methyl)-1H-benzo[d]imidazole-6-carboxylic acid] | < 3.2 nM | -5.42%
2 | O=C(O)c1ccc2nc(Cc3ccc(-c4cccc(OCc5ccc(Cl)cc5F)n4)c(F)c3F)n(CC3CCCO3)c2c1 (stereo not drawn) [Example 61, 2-(4-(6-(4-chloro-2-fluorobenzyloxy)pyridin-2-yl)-2,3-difluorobenzyl)-1-((tetrahydrofuran-2-yl)methyl)-1H-benzo[d]imidazole-6-carboxylic acid] | 8.7 nM | -6.72%
3 | N#Cc1ccc(COc2cccc(-c3ccc(Cc4nc5ccc(C(=O)O)cc5n4CC4CCCO4)c(F)c3F)n2)c(F)c1 (stereo not drawn) [Example 62, 2-(4-(6-(4-cyano-2-fluorobenzyloxy)pyridin-2-yl)-2,3-difluorobenzyl)-1-((tetrahydrofuran-2-yl)methyl)-1H-benzo[d]imidazole-6-carboxylic acid] | 37 nM | -7.49%
4 | COc1cc(-c2cccc(OCc3ccc(Cl)cc3F)n2)ccc1Cc1nc2ccc(C(=O)O)cc2n1CC1CCCO1 (stereo not drawn) [Example 63, 2-(4-(6-(4-chloro-2-fluorobenzyloxy)pyridin-2-yl)-2-methoxybenzyl)-1-((tetrahydrofuran-2-yl)methyl)-1H-benzo[d]imidazole-6-carboxylic acid] | 160 nM | -19.6%
5 | COc1cc(-c2cccc(OCc3ccc(C#N)cc3F)n2)ccc1Cc1nc2ccc(C(=O)O)cc2n1CC1CCCO1 (stereo not drawn) [Example 64, 2-(4-(6-(4-cyano-2-fluorobenzyloxy)pyridin-2-yl)-2-methoxybenzyl)-1-((tetrahydrofuran-2-yl)methyl)-1H-benzo[d]imidazole-6-carboxylic acid] | 110 nM | -9.05%
6 | O=C(O)c1ccc2nc(Cc3c(F)cc(-c4cccc(OCc5ccc(Cl)cc5F)n4)cc3F)n(CC3CCCO3)c2c1 (stereo not drawn) [Example 65, 2-(4-(6-(4-chloro-2-fluorobenzyloxy)pyridin-2-yl)-2,6-difluorobenzyl)-1-((tetrahydrofuran-2-yl)methyl)-1H-benzo[d]imidazole-6-carboxylic acid] | 5 nM | 10.8%
7 | N#Cc1ccc(COc2cccc(-c3ccc(Cc4nc5ccc(C(=O)O)cc5n4C[C@@H]4CCCO4)c(F)c3)n2)c(F)c1 [Example 66, (S)-2-(4-(6-(4-cyano-2-fluorobenzyloxy)pyridin-2-yl)-2-fluorobenzyl)-1-((tetrahydrofuran-2-yl)methyl)-1H-benzo[d]imidazole-6-carboxylic acid] | 4.6 nM | -7.97%
8 | N#Cc1ccc(COc2cccc(-c3ccc(Cc4nc5ccc(C(=O)O)cc5n4C[C@@H]4CCCO4)cc3F)n2)c(F)c1 [Example 67, (S)-2-(4-(6-(4-cyano-2-fluorobenzyloxy)pyridin-2-yl)-3-fluorobenzyl)-1-((tetrahydrofuran-2-yl)methyl)-1H-benzo[d]imidazole-6-carboxylic acid] | 11 nM | 0.85%
9 | Cc1cc(-c2cccc(OCc3ccc(C#N)cc3F)n2)ccc1Cc1nc2ccc(C(=O)O)cc2n1CC1CCCO1 (stereo not drawn) [Example 68, 2-(4-(6-(4-cyano-2-fluorobenzyloxy)pyridin-2-yl)-2-methylbenzyl)-1-((tetrahydrofuran-2-yl)methyl)-1H-benzo[d]imidazole-6-carboxylic acid] | 29 nM | -11.4%
10 | Cc1cc(-c2cccc(OCc3ccc(Cl)cc3F)n2)ccc1Cc1nc2ccc(C(=O)O)cc2n1CC1CCCO1 (stereo not drawn) [Example 69, 2-(4-(6-(4-chloro-2-fluorobenzyloxy)pyridin-2-yl)-2-methylbenzyl)-1-((tetrahydrofuran-2-yl)methyl)-1H-benzo[d]imidazole-6-carboxylic acid] | 31 nM | -14.7%
11 | O=C(O)c1ccc2nc(Cc3cc(F)c(-c4cccc(OCc5ccc(Cl)cc5F)n4)cc3F)n(CC3CCCO3)c2c1 (stereo not drawn) [Example 70, 2-(4-(6-(4-chloro-2-fluorobenzyloxy)pyridin-2-yl)-2,5-difluorobenzyl)-1-((tetrahydrofuran-2-yl)methyl)-1H-benzo[d]imidazole-6-carboxylic acid] | < 3.2 nM | -6.14%
12 | N#Cc1ccc(COc2cccc(-c3cc(F)c(Cc4nc5ccc(C(=O)O)cc5n4CC4CCCO4)cc3F)n2)c(F)c1 (stereo not drawn) [Example 71, 2-(4-(6-(4-cyano-2-fluorobenzyloxy)pyridin-2-yl)-2,5-difluorobenzyl)-1-((tetrahydrofuran-2-yl)methyl)-1H-benzo[d]imidazole-6-carboxylic acid] | < 3.2 nM | -2.52%
13 | CCn1cncc1Cn1c(Cc2ccc(-c3cccc(OCc4ccc(Cl)cc4F)n3)cc2F)nc2ccc(C(=O)O)cc21 [Example 72, 2-(4-(6-(4-chloro-2-fluorobenzyloxy)pyridin-2-yl)-2-fluorobenzyl)-1-((1-ethyl-1H-imidazole-5-yl)methyl)-1H-benzo[d]imidazole-6-carboxylic acid] | < 3.2 nM | -5.75%
14 | N#Cc1ccc(COc2cccc(-c3ccc(Cc4nc5ccc(C(=O)O)cc5n4C[C@@H]4CCO4)cc3F)n2)c(F)c1 [Example 74, (S)-2-(4-(6-(4-cyano-2-fluorobenzyloxy)pyridin-2-yl)-3-fluorobenzyl)-1-(oxetan-2-ylmethyl)-1H-benzo[d]imidazole-6-carboxylic acid] | 5.8 nM | -16.2%
15 | O=C(O)c1ccc2nc(Cc3ccc(-c4cccc(OCc5ccc(Cl)cc5)n4)cc3F)n(CC3CCCO3)c2c1 (stereo not drawn) [Example 75, 2-(4-(6-(4-chlorobenzyloxy)pyridin-2-yl)-2-fluorobenzyl)-1-((tetrahydrofuran-2-yl)methyl)-1H-benzo[d]imidazole-6-carboxylic acid] | 23 nM | -7.98%
16 | Cc1ccc(COc2cccc(-c3ccc(Cc4nc5ccc(C(=O)O)cc5n4CC4CCCO4)c(F)c3)n2)cc1 (stereo not drawn) [Example 76, 2-(2-fluoro-4-(6-(4-methylbenzyloxy)pyridin-2-yl)benzyl)-1-((tetrahydrofuran-2-yl)methyl)-1H-benzo[d]imidazole-6-carboxylic acid] | 38 nM | -0.5%
17 | O=C(O)c1ccc2nc(Cc3ccc(-c4cccc(OCc5ccc(C(F)(F)F)cc5)n4)cc3F)n(CC3CCCO3)c2c1 (stereo not drawn) [Example 77, 2-(2-fluoro-4-(6-(4-(trifluoromethyl)benzyloxy)pyridin-2-yl)benzyl)-1-((tetrahydrofuran-2-yl)methyl)-1H-benzo[d]imidazole-6-carboxylic acid] | 28 nM | -70.9%
18 | O=C(O)c1ccc2nc(Cc3ccc(-c4cccc(OCc5ccc(Cl)cc5F)n4)c(F)c3)n(C[C@@H]3CCO3)c2c1 [Example 79, (S)-2-(4-(6-(4-chloro-2-fluorobenzyloxy)pyridin-2-yl)-3-fluorobenzyl)-1-(oxetan-2-ylmethyl)-1H-benzo[d]imidazole-6-carboxylic acid] | < 3.2 nM | -2.04%
